In ChEMBL document CHEMBL5331043, “A comprehensive review on acridone based derivatives as future anti-cancer agents and their structure activity relationships” (Eur J Med Chem, 2022):
Where “and” joins values, the source holds several entries; their conditions need not be identical. Equal entries are not always repeated.

Assays:
[1] = tested on: NCI-H23; test: Cytotoxicity against human NCI-H23 cells; format: functional; conditions: read-out: LC50 (the source's name)
[2] = tested on: M14; test: Cytotoxicity against human M14 cells; format: functional; conditions: read-out: LC50 (the source's name)
[3] = tested on: UACC-62; test: Cytotoxicity against human UACC-62 cells; format: functional; conditions: read-out: LC50 (the source's name)
[4] = tested on: A498; test: Cytotoxicity against human A498 cells; format: functional; conditions: read-out: LC50 (the source's name)
[5] = tested on: MCF7; test: Cytotoxicity against human MCF7 cells assessed as reduction in cell viability incubated for 72 hrs by MTT assay; format: functional, cell-based; conditions: MCF7, 72 h
[6] = tested on: MDA-MB-231; test: Cytotoxicity against human MDA-MB-231 cells assessed as reduction in cell viability incubated for 72 hrs by MTT assay; format: functional, cell-based; conditions: MDA-MB-231, 72 h
[7] = tested on: MCF7; test: Cytotoxicity against human wild type MCF7 cells; format: functional, cell-based
[8] = Cytotoxicity against human MCF7/Mitox cells; format: functional, cell-based
[9] = tested on: MCF7-DOX; test: Cytotoxicity against human MCF7-DOX cells; format: functional, cell-based
[10] = biological target: Stimulator of interferon genes protein (Homo sapiens, UniProt Q86WV6); test: Activation of STING pathway in human 293T-hSTING-R232 cells incubated for 48 hrs by QUANTI-Luc assay; format: cell-based, 293T-hSTING-R232 cell
[11] = Cytotoxicity against human MDA-MB-231/BCRP cells assessed as reduction in cell growth by resazurin reduction assay; format: functional, cell-based
[12] = tested on: HL-60; test: Cytotoxicity against human HL-60 cells assessed as cell growth inhibition incubated for 72 hrs by tryphan blue staining based analysis; format: functional; conditions: HL-60, 72 h
[13] = tested on: MCF7; test: Cytotoxicity against human wild type MCF7 cells assessed as reduction in cell viability measured after 72 hrs by SRB assay; format: functional, cell-based; conditions: MCF7, 72 h
[14] = Cytotoxicity against human mitoxantrone resistant human MCF7/Mitox cells assessed as reduction in cell viability incubated for 72 hrs by SRB assay; format: functional, cell-based
[15] = tested on: MCF7-DOX; test: Cytotoxicity against human doxorubicin resistant MCF7-DOX cells assessed as reduction in cell viability incubated for 72 hrs by SRB assay; format: functional, cell-based
[16] = tested on: PC-3; test: Antiproliferative activity against human PC-3 cells assessed as reduction in cell viability measured after 24 hrs by MTT assay; format: functional, cell-based; conditions: PC-3, 24 h
[17] = biological target: MAP/microtubule affinity-regulating kinase 4 (Homo sapiens, UniProt Q96L34); test: Inhibition of human MARK4 ATPase activity using ATP as substrate incubated for 10 to 20 mins by Biomol green reagent based ELISA analysis
[18] = tested on: MCF7; test: Antiproliferative activity against human MCF7 cells assessed as reduction in cell viability incubated for 48 hrs by MTT assay; format: functional, cell-based; conditions: MCF7, 48 h
[19] = tested on: SW1573; test: Cytotoxicity against human SW1573 cells assessed as reduction in cell viability incubated for 72 hrs by SRB assay; format: functional, cell-based; conditions: SW1573, 72 h
[20] = tested on: HL-60; test: Anticancer activity against human HL-60 cells assessed as cell growth inhibition incubated for 72 hrs by MTT assay; format: functional, cell-based; conditions: HL-60, 72 h
[21] = tested on: P388; test: Cytotoxicity against mouse P388 cells; format: functional, cell-based
[22] = tested on: HL60/ADR; test: Cytotoxicity against drug resistant human HL60/ADR cells assessed as inhibition of cell growth incubated for 72 hrs by SRB assay; format: functional, cell-based
[23] = Cytotoxicity against drug resistant human HL60/VCR assessed as inhibition of cell growth incubated for 72 hrs by SRB assay; format: functional, cell-based
[24] = tested on: HL-60; test: Cytotoxicity against human HL-60 cells assessed as cell growth inhibition incubated for 72 hrs by SRB assay; format: functional, cell-based; conditions: HL-60, 72 h

Chain of MAP/microtubule affinity-regulating kinase 4 (Q96L34 whole entry): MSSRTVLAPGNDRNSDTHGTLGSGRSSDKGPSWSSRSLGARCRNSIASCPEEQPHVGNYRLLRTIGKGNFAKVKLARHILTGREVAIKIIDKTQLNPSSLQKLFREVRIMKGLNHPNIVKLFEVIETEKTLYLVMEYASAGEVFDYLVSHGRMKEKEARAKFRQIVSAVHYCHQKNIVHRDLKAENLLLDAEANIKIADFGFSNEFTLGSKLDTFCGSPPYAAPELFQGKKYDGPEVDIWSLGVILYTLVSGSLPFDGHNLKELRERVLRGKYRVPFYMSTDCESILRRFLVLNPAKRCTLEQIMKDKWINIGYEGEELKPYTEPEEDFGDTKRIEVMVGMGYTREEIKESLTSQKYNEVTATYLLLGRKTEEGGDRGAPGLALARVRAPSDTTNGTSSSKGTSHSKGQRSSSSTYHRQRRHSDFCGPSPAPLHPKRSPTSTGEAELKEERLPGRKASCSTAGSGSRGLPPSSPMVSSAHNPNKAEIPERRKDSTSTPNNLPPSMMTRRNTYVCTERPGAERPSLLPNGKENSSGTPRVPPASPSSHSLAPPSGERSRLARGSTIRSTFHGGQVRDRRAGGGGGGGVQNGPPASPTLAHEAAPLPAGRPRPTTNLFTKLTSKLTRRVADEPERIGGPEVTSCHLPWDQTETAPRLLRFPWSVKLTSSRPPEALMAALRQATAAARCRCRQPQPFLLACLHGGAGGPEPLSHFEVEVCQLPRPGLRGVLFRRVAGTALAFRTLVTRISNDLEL
Chain of Stimulator of interferon genes protein (Q86WV6 whole entry): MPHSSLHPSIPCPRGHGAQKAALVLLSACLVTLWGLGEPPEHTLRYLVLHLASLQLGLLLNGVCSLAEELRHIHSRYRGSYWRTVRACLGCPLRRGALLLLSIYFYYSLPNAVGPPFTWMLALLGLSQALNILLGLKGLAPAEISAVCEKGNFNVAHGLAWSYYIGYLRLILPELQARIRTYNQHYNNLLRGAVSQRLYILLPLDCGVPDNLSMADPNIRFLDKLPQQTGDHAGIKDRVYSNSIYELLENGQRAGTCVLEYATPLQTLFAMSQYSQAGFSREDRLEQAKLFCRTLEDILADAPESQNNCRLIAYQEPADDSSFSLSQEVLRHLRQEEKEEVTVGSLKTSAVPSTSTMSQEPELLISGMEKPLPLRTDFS

## COc1cc2c(cc1OCCCNC(=O)c1cccc3c(O)c4ccccc4nc13)N=C[C@@H]1CCCN1C2=O
[1]
  CC50: 0.07 µM
[2]
  CC50: < 0.01 µM
[3]
  CC50: < 0.01 µM
[4]
  CC50: 0.05 µM

## CCOC(=O)c1c(C)nc(NNC(=O)c2cccc3c(=O)c4ccccc4[nH]c23)nc1-c1ccc(F)cc1
[5]
  IC50: 7.3 µM

## CCOC(=O)c1c(C)nc(NNC(=O)c2cccc3c(=O)c4ccccc4[nH]c23)nc1-c1ccccc1F
[6]
  IC50: 7.12 µM

## CCOC(=O)c1c(C)nc(NNC(=O)c2cccc3c(=O)c4ccccc4[nH]c23)nc1-c1ccc(OC)cc1
[6]
  IC50: 6.28 µM

## Cc1ccc(NC(=O)c2cccc3c(=O)c4ccccc4[nH]c23)cc1
[7]
  IC50: 6.5 µM
[8]
  IC50: 7.4 µM
[9]
  IC50: 8.3 µM

## COc1cc2c(=O)c3cccc(CC(=O)O)c3[nH]c2c(C)c1C
[10]
  EC50: 134 µM

## COc1cc(OC)c2c(=O)c3ccccc3n(C)c2c1
[11]
  IC50: 3.38 µM

## CCOC(=O)c1c(C)nc(NNC(=O)c2cccc3c(=O)c4ccccc4[nH]c23)nc1-c1ccc(CC(C)C)cc1
[5]
  IC50: 4.32 µM
[6]
  IC50: 8.61 µM

## CCN(CC)CCCCn1c2ccccc2c(=O)c2c(OC(C)=O)cc(OC(C)=O)cc21
[12]
  IC50: 0.45 µM

## O=C(c1ccc2c(c1)c(=O)c1ccccc1n2CCCCO[N+](=O)[O-])N1CCOCC1
[13]
  IC50: 0.8 µM
[14]
  IC50: 0.8 µM and > 2.7 µM
[15]
  IC50: > 1.9 µM

## CN(C)CCNC(=O)c1ccc([N+](=O)[O-])c2[nH]c3ccccc3c(=O)c12
[16]
  IC50: 1.2 µM

## Cc1ccc(NC(=O)Cn2c3ccccc3c(=O)c3cc(C)ccc32)cc1
[17]
  IC50: 1.8 µM
[18]
  IC50: 5.2 µM

## O=C(NN1CCN(c2ccccc2)CC1)c1cccc2c(=O)c3ccccc3[nH]c12
[7]
  IC50: 4.5 µM
[8]
  IC50: 5.1 µM
[9]
  IC50: 6.6 µM

## O=c1c2ccccc2n(CCCCN2CCN(CCO)CC2)c2c(F)cccc12
[19]
  IC50: 5.1 µM

## N#Cc1c(F)c(Cl)c2[nH]c3ccccc3c(=O)c2c1F
[20]
  IC50: 0.007 µM

## CN(C)CCn1c(=O)c2cc(N)cc3c(=O)c4ccccc4n(c1=O)c32
[21]
  IC50: 63 µM

## CC(=O)Nc1ccc2[nH]c3c(C(=O)NCCN(C)C)cccc3c(=O)c2c1
[21]
  IC50: 22 µM

## O=c1c2ccccc2n(CCCCN2CCN(CCO)CC2)c2c(Cl)cccc12
[22]
  IC50: 1.07 µM
[23]
  IC50: 0.49 µM
[24]
  IC50: 0.45 µM
